Reference: PubChem BioAssay AID330 (DTP/NCI, 2004)
Values joined by “and” are separate entries in the source; they are usually repeats but may differ in a detail not shown here. Identical values can stand only once. Inconclusive results and toxic doses are left out. Rule for the calls: active = survival T/C of 150% or more; inactive = T/C below 125% in these data.

System: P388 leukemia ip, CD2F1 mice, survival T/C
Test: NCI In Vivo Anticancer Drug Screen. Data for tumor model P388 Leukemia (intraperitoneal) in CD2F1 (CDF1) mice
Details: endpoint: median survival time, higher = longer survival
Method in brief: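 Mice carrying the transplanted tumor received test compound or vehicle. Survival was recorded in each group, and the value is the treated-group measurement divided by that of the vehicle-treated control group.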

[1] = dose: 12.5 mg/kg/injection, schedule: Q01DX009 (ip), vehicle: saline with Tween-80
[2] = dose: 25.0 mg/kg/injection, schedule: Q01DX009 (ip), vehicle: saline with Tween-80
[3] = dose: 50.0 mg/kg/injection, schedule: Q01DX009 (ip), vehicle: saline with Tween-80
[4] = dose: 50.0 mg/kg/injection, schedule: Q01DX005 (ip), vehicle: saline with Tween-80
[5] = dose: 100.0 mg/kg/injection, schedule: Q01DX005 (ip), vehicle: saline with Tween-80
[6] = dose: 200.0 mg/kg/injection, schedule: Q01DX005 (ip), vehicle: saline with Tween-80
[7] = dose: 200.0 mg/kg/injection, schedule: Q01DX009 (ip), vehicle: saline with Tween-80
[8] = dose: 50.0 mg/kg/injection, schedule: Q01DX009 (ip), vehicle: Klucel (hydroxypropylcellulose) (HPC)
[9] = dose: 100.0 mg/kg/injection, schedule: Q01DX009 (ip), vehicle: Klucel (hydroxypropylcellulose) (HPC)
[10] = dose: 50.0 mg/kg/injection, schedule: Q01DX005 (ip), vehicle: Klucel (hydroxypropylcellulose) (HPC)
[11] = dose: 100.0 mg/kg/injection, schedule: Q01DX005 (ip), vehicle: Klucel (hydroxypropylcellulose) (HPC)
[12] = dose: 200.0 mg/kg/injection, schedule: Q01DX005 (ip), vehicle: Klucel (hydroxypropylcellulose) (HPC)
[13] = dose: 200.0 mg/kg/injection, schedule: Q01DX009 (ip), vehicle: Klucel (hydroxypropylcellulose) (HPC)
[14] = dose: 12.5 mg/kg/injection, schedule: Q01DX005 (ip), vehicle: saline with Tween-80
[15] = dose: 25.0 mg/kg/injection, schedule: Q01DX005 (ip), vehicle: saline with Tween-80

Measured: T/C

Oc1c(CN2CCCCC2)ccc2cccnc12
inactive: dose: 0.78 mg/kg/injection, schedule: Q01DX009 (ip), vehicle: saline with Tween-80 107 % of control and 92 % of control | dose: 1.56 mg/kg/injection, schedule: Q01DX009 (ip), vehicle: saline with Tween-80 99 % of control and 97 % of control | dose: 3.12 mg/kg/injection, schedule: Q01DX009 (ip), vehicle: saline with Tween-80 107 % of control | dose: 6.25 mg/kg/injection, schedule: Q01DX009 (ip), vehicle: saline with Tween-80 99 % of control and 110 % of control and 122 % of control | [1] 99 % of control and 106 % of control and 108 % of control | [2] 113 % of control | [3] 113 % of control

COc1cccc2c1C(=O)c1c(O)c3c(c(O)c1C2=O)CC(O)(C(C)=O)CC3OC1CC(NCC2(O)OC(C(=O)NCCCN(C)C)C(O)C2O)C(O)C(C)O1 (configuration not stated)
inactive: dose: 2.5 mg/kg/injection, schedule: Q04DX003 (ip), vehicle: water 101 % of control | dose: 5.0 mg/kg/injection, schedule: Q04DX003 (ip), vehicle: water 109 % of control | dose: 10.0 mg/kg/injection, schedule: Q04DX003 (ip), vehicle: water 108 % of control | dose: 20.0 mg/kg/injection, schedule: Q04DX003 (ip), vehicle: water 109 % of control | dose: 40.0 mg/kg/injection, schedule: Q04DX003 (ip), vehicle: water 109 % of control

CCOC(=O)N[N+]12CCN(CC1)CC2
inactive: dose: 100.0 mg/kg/injection, schedule: Q04DX003 (ip), vehicle: saline 100 % of control | dose: 200.0 mg/kg/injection, schedule: Q04DX003 (ip), vehicle: saline 102 % of control | dose: 400.0 mg/kg/injection, schedule: Q04DX003 (ip), vehicle: saline 102 % of control

CCN(CCO)CCNc1ccc(C)c2sc3cc(OC)ccc3c(=O)c12
inactive: [4] 102 % of control and 103 % of control and 107 % of control | [5] 106 % of control and 112 % of control and 117 % of control | [6] 103 % of control and 119 % of control | dose: 400.0 mg/kg/injection, schedule: Q01DX005 (ip), vehicle: saline with Tween-80 115 % of control

CCOC(=O)c1coc(N)n1
inactive: dose: 12.5 mg/kg/injection, schedule: Q01DX009 (ip), vehicle: other 98 % of control | dose: 25.0 mg/kg/injection, schedule: Q01DX009 (ip), vehicle: other 100 % of control | dose: 50.0 mg/kg/injection, schedule: Q01DX009 (ip), vehicle: other 106 % of control | dose: 100.0 mg/kg/injection, schedule: Q01DX009 (ip), vehicle: other 107 % of control | dose: 200.0 mg/kg/injection, schedule: Q01DX009 (ip), vehicle: other 103 % of control

COCn1ccnc1C(=O)c1ccco1
inactive: [3] 103 % of control | dose: 100.0 mg/kg/injection, schedule: Q01DX009 (ip), vehicle: saline with Tween-80 111 % of control | [7] 94 % of control

c1ccc2c(c1)Sc1ccccc1C2=C1c2ccccc2Sc2ccccc21
inactive: [4] 88 % of control | [5] 90 % of control | [6] 88 % of control

CC/C=C/c1cc2ccccc2c(=O)o1
inactive: dose: 12.5 mg/kg/injection, schedule: Q01DX009 (ip), vehicle: Klucel (hydroxypropylcellulose) (HPC) 106 % of control | dose: 25.0 mg/kg/injection, schedule: Q01DX009 (ip), vehicle: Klucel (hydroxypropylcellulose) (HPC) 114 % of control | [8] 100 % of control | [9] 110 % of control

O=C1CC2C3C1N(c1ccc(Cl)cc1)C1(Nc4ccc(Cl)cc4)C(=O)CC(C31)N2c1ccc(Cl)cc1 (configuration not stated)
inactive: dose: 7.5 mg/kg/injection, schedule: Q01DX005 (ip), vehicle: Klucel (hydroxypropylcellulose) (HPC) 104 % of control | dose: 15.0 mg/kg/injection, schedule: Q01DX005 (ip), vehicle: Klucel (hydroxypropylcellulose) (HPC) 101 % of control | dose: 30.0 mg/kg/injection, schedule: Q01DX005 (ip), vehicle: Klucel (hydroxypropylcellulose) (HPC) 92 % of control

CC(=O)ON(C(C)=O)c1ccc(C(=O)OC2(C)CC(C)(C)[N+]([O-])=N2)cc1 (configuration not stated) (tested in a mixture with another compound)
inactive: dose: 12.5 mg/kg/injection, schedule: Q01DX009 (ip), vehicle: water 95 % of control | dose: 25.0 mg/kg/injection, schedule: Q01DX009 (ip), vehicle: water 101 % of control | dose: 50.0 mg/kg/injection, schedule: Q01DX009 (ip), vehicle: water 94 % of control | dose: 200.0 mg/kg/injection, schedule: Q01DX009 (ip), vehicle: water 106 % of control

CCOc1cccc2c1CCC(O[Si](C)(C)C(C)(C)C)C2 (configuration not stated)
inactive: [4] 94 % of control | [5] 95 % of control | [6] 96 % of control

CC(C)(C)OC(=O)NC(Cc1ccc(O)cc1)C(=O)ON1C(=O)CCC1=O (configuration not stated)
inactive: [10] 100 % of control | [11] 106 % of control | [12] 108 % of control

Cc1c[n+]([O-])n(-c2ccccc2)n1
inactive: [4] 101 % of control | [5] 97 % of control | [6] 103 % of control

Clc1cccc2sc(Nc3c4ccccc4nc4ccccc34)nc12
inactive: dose: 12.5 mg/kg/injection, schedule: Q04DX002 (ip), vehicle: distilled water + Tween-80 95 % of control | dose: 25.0 mg/kg/injection, schedule: Q04DX002 (ip), vehicle: distilled water + Tween-80 89 % of control | dose: 50.0 mg/kg/injection, schedule: Q04DX002 (ip), vehicle: distilled water + Tween-80 95 % of control | dose: 100.0 mg/kg/injection, schedule: Q04DX002 (ip), vehicle: distilled water + Tween-80 97 % of control | dose: 200.0 mg/kg/injection, schedule: Q04DX002 (ip), vehicle: distilled water + Tween-80 97 % of control | dose: 400.0 mg/kg/injection, schedule: Q04DX002 (ip), vehicle: distilled water + Tween-80 97 % of control

CC1(C)C[C@H]2C=C(C=O)[C@]34C[C@]3(C(=O)OC4O)[C@H]2C1 (some centres not stated)
inactive: dose: 0.18 mg/kg/injection, schedule: Q01DX009 (ip), vehicle: Klucel (hydroxypropylcellulose) (HPC) 103 % of control | dose: 0.78 mg/kg/injection, schedule: Q01DX009 (ip), vehicle: Klucel (hydroxypropylcellulose) (HPC) 111 % of control and 120 % of control | dose: 1.56 mg/kg/injection, schedule: Q01DX009 (ip), vehicle: Klucel (hydroxypropylcellulose) (HPC) 106 % of control and 117 % of control

CCOC(=O)Cc1ccc(-c2csc(Nc3ccc(F)cc3)n2)cc1
inactive: [8] 103 % of control | [9] 100 % of control | [13] 105 % of control

CC(C)(C)c1ccc(N)c(C(O)(C(F)(F)F)C(F)(F)F)c1
inactive: dose: 30.0 mg/kg/injection, schedule: Q01DX005 (ip), vehicle: saline with Tween-80 100 % of control and 90 % of control

N#Cc1c(C(F)(F)F)cc(-c2cccs2)nc1SC(C(=O)Nc1c(F)cccc1F)c1ccccc1 (configuration not stated)
inactive: [10] 94 % of control | [11] 94 % of control | [12] 94 % of control

CSc1cccc(NC(=O)OCCOc2ccc([N+](=O)[O-])cc2)c1
inactive: [8] 98 % of control | [9] 101 % of control | [13] 99 % of control

Fc1ccc(CSC(=S)Nc2ccc(F)c(F)c2)cc1
inactive: [8] 111 % of control | dose: 50.0 mg/kg/injection, schedule: Q01DX009 (ip), vehicle: saline 87 % of control | dose: 100.0 mg/kg/injection, schedule: Q01DX009 (ip), vehicle: saline 107 % of control | dose: 200.0 mg/kg/injection, schedule: Q01DX009 (ip), vehicle: saline 108 % of control

O=C(/C=C/c1ccc(OCc2ccccc2)cc1)c1ccc(C(F)(F)F)cc1
inactive: [1] 94 % of control | [2] 100 % of control | [3] 90 % of control and 93 % of control | [7] 95 % of control

CCC/C(=N\NC(=S)N1CC2CCC(CC2)C1)c1ccccn1
inactive: dose: 6.25 mg/kg/injection, schedule: Q01DX005 (ip), vehicle: saline with Tween-80 104 % of control and 110 % of control | [14] 113 % of control and 116 % of control | [15] 120 % of control

O=C(O)c1cc2ccccc2c(N=Nc2cc(C(F)(F)F)ccc2Cl)c1O
inactive: [14] 102 % of control | [15] 100 % of control | [4] 98 % of control and 100 % of control | [6] 86 % of control

COC(=O)C1(C#N)CC1
inactive: dose: 60.0 mg/kg/injection, schedule: Q01DX005 (ip), vehicle: saline 113 % of control | dose: 120.0 mg/kg/injection, schedule: Q01DX005 (ip), vehicle: saline 96 % of control | dose: 240.0 mg/kg/injection, schedule: Q01DX005 (ip), vehicle: saline 103 % of control

NS(=O)(=O)c1ccc(N=c2c3ccccc3n(Cc3ccccc3)c3ccccc23)cc1
inactive: [4] 88 % of control | [5] 94 % of control

O=C(OCOC(=O)c1ccccc1)c1ccccc1
inactive: [9] 117 % of control | [13] 107 % of control | dose: 400.0 mg/kg/injection, schedule: Q01DX009 (ip), vehicle: Klucel (hydroxypropylcellulose) (HPC) 109 % of control
